Source: patent US12459932B2, “KIF18A inhibitors” (AMGEN INC., priority 2018, dated 2025)
Counter-ions that a name gives are not always drawn.

Target: T1, Recombinant human KIF18A (1-467 His-tagged) (Homo sapiens, UniProt Q8NI77)
T1 construct: Recombinant human KIF18A (1-467 His-tagged) protein; His
Assay: KIF18A Enzyme Assay: microtubule-stimulated ATPase activity (ADP-Glo)
Format: biochemical
Conditions: 30 nM KIF18A, 30 μg/mL pig microtubules, ATP 75 μM (Km), ADP-Glo luminescence
Method in brief: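 Measures microtubule-stimulated ATPase activity as ADP formed, detected by luminescence. Compounds were tested as 2-fold serial dilutions over 22 points. IC50 values came from four-parameter logistic fits.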

T1 sequence (Q8NI77 1-467): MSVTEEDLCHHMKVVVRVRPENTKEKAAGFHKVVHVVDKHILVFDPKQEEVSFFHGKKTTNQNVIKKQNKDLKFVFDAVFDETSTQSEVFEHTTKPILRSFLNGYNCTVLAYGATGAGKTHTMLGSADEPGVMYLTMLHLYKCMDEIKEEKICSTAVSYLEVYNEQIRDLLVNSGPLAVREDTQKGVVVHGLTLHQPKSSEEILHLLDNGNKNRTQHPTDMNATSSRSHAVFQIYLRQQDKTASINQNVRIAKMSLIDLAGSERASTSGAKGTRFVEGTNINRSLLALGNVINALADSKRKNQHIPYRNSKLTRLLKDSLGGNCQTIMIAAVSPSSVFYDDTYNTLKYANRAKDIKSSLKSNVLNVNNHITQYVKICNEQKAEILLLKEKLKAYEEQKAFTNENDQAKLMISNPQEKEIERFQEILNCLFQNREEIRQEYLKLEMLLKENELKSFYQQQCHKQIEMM
T1 sequence (P02550 whole entry partner): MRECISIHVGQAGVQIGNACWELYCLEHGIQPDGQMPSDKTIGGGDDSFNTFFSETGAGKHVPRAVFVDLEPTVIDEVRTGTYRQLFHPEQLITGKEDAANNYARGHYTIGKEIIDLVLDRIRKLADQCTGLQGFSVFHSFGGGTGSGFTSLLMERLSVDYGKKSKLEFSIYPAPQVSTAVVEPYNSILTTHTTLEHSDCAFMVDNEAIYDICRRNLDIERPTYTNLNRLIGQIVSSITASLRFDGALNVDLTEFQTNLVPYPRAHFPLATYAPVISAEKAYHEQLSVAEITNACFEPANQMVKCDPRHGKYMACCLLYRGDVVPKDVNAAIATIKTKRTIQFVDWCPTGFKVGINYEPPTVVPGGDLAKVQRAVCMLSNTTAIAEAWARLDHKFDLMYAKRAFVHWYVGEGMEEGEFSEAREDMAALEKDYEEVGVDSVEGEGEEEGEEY
T1 sequence (P02554 whole entry partner): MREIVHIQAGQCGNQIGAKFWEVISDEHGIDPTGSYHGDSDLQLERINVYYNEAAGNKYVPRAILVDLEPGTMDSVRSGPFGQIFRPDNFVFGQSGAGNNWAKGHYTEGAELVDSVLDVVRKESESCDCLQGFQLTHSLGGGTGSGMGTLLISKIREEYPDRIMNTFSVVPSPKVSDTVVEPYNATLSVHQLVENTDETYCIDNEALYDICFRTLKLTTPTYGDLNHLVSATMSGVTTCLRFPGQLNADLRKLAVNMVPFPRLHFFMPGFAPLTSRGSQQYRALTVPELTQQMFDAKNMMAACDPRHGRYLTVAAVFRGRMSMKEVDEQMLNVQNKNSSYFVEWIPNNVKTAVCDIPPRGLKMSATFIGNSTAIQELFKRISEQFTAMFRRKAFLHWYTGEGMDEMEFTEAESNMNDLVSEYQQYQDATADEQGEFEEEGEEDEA

| Structure (SMILES) | IC50 |
| --- | --- |
| C[C@@H]1CN(c2cc(C3CC3)cc(NC(=O)c3ccc(NS(=O)(=O)CCO)cc3N3CCC4(CC3)CC4)n2)CCO1 [Example 19, (R)—N-(4-cyclopropyl-6-(2-methylmorpholino)pyridin-2-yl)-4-((2-hydroxyethyl)sulfonamido)-2-(6-azaspiro[2.5]octan-6-yl)benzamide] | 87 nM |
| Cc1cc(NC(=O)c2ccc(NS(=O)(=O)[C@@H](C)CO)cc2N2CCC3(CC2)CC3)nc(N2CCOCC2)c1 (single isomer, unassigned) [Example 9-14] | 18 nM |
| Cc1cc(NC(=O)c2ccc(S(=N)(=O)C3CC3)cc2N2CCC3(CC2)CC3)nc(N2CCO[C@H](C)C2)c1 (single isomer, unassigned) [Example 29-1] | 165 nM |
| Cc1ccc(NC(=O)c2ccc(NS(=O)(=O)CCO)cc2N2CCC3(CC2)CC3)nc1N1CCC(F)(F)CC1 [Example 22, N-(6-(4,4-Difluoropiperidin-1-yl)-5-methylpyridin-2-yl)-4-((2-hydroxyethyl)sulfonamido)-2-(6-azaspiro[2.5]octan-6-yl)benzamide] | 41 nM |
| C[C@@H]1CN(c2cccc(NC(=O)c3ccc(N4CCS4(=O)=O)cc3N3CCC4(CC3)CC4)n2)CCO1 [Example 7-6, (R)-4-(1,1-Dioxido-1,2-thiazetidin-2-yl)-N-(6-(2-methylmorpholino)pyridin-2-yl)-2-(6-azaspiro[2.5]octan-6-yl)benzamide] | 98 nM |
| C[C@@H]1CN(c2cccc(NC(=O)c3ccc(S(=O)(=O)C(C)(C)C)cc3N3CCC4(CC3)CC4)n2)CCO1 [Example 2-2, (R)-4-(tert-Butylsulfonyl)-N-(6-(2-methylmorpholino)pyridin-2-yl)-2-(6-azaspiro[2.5]octan-6-yl)benzamide] | 78 nM |
| Cc1cc(NC(=O)c2ccc(NS(=O)(=O)CCO)cc2N2CCC3(CC2)CC3)nc(OCC(C)(C)O)c1 [Example 17-2, N-(6-(2-Hydroxy-2-methylpropoxy)-4-methylpyridin-2-yl)-4-((2-hydroxyethyl)sulfonamido)-2-(6-azaspiro[2.5]octan-6-yl)benzamide] | 59 nM |
| C[C@@H]1CN(c2cccc(NC(=O)c3ccc(NS(=O)(=O)CC(F)(F)F)cc3N3CCC4(CC3)CC4)n2)CCO1 [Example 7-39, (R)-N-(6-(2-methylmorpholino)pyridin-2-yl)-2-(6-azaspiro[2.5]octan-6-yl)-4-((2,2,2-trifluoroethyl)sulfonamido)benzamide] | 135 nM |
| C[C@@H]1CN(c2cccc(NC(=O)c3ccc(NS(=O)(=O)C4(CO)CC4)cc3N3CCC4(CC3)CC4)n2)CCO1 [Example 10-1, (R)-4-((1-(Hydroxymethyl)cyclopropane)-1-sulfonamido)-N-(6-(2-methylmorpholino)pyridin-2-yl)-2-(6-azaspiro[2.5]octan-6-yl) benzamide] | 57 nM |
| CC1(S(=O)(=O)Nc2ccc(C(=O)Nc3cccc(N4CC(F)(F)C4)n3)c(N3CCC4(CC3)CC4)c2)CC1 [Example 3-18, N-(6-(3,3-Difluoroazetidin-1-yl)pyridin-2-yl)-4-((1-methylcyclopropane)-1-sulfonamido)-2-(6-azaspiro[2.5]octan-6-yl)benzamide] | 48 nM |
| CC1(S(=O)(=O)Nc2ccc(C(=O)Nc3cccc(N4CCC(F)(F)C4)n3)c(N3CCC4(CC3)CC4)c2)CC1 [Example 3-5, N-(6-(3,3-Difluoropyrrolidin-1-yl)pyridin-2-yl)-4-((1-methylcyclopropane)-1-sulfonamido)-2-(6-azaspiro[2.5]octan-6-yl)benzamide] | 45 nM |
| C[C@@H]1CN(c2cccc(NC(=O)c3ccc(S(=N)(=O)C4CC4)cc3N3CCC4(CC3)CC4)n2)CCO1 (single isomer, unassigned) [Example 12-2] | 43 nM |
| CC1(S(=O)(=O)Nc2ccc(C(=O)Nc3cccc(N4CC(F)C4)n3)c(N3CCC4(CC3)CC4)c2)CC1 [Example 3-16, N-(6-(3-Fluoroazetidin-1-yl)pyridin-2-yl)-4-((1-methylcyclopropane)-1-sulfonamido)-2-(6-azaspiro[2.5]octan-6-yl)benzamide] | 58 nM |
| O=C(Nc1cccc(OCCC(F)F)n1)c1ccc(NS(=O)(=O)CCO)cc1N1CCC2(CC1)CC2 [Example 16-9, N-(6-(3,3-Difluoropropoxy)pyridin-2-yl)-4-((2-hydroxyethyl)sulfonamido)-2-(6-azaspiro[2.5]octan-6-yl)benzamide] | 51 nM |
| C[C@@H]1CN(c2cccc(NC(=O)c3ccc(S(=O)(=O)N4CC(C#N)C4)cc3N3CCC4(CC3)CC4)n2)CCO1 [Example 1-13, (R)-4-((3-Cyanoazetidin-1-yl)sulfonyl)-N-(6-(2-methylmorpholino)pyridin-2-yl)-2-(6-azaspiro[2.5]octan-6-yl)benzamide] | 209 nM |
| C[C@@H]1CN(c2cccc(NC(=O)c3ccc(S(=O)(=O)NC(C)(C)C)cc3N3CCC4(CC3)CC4)n2)CCO1 [Example 1-6, (R)-4-(N-(tert-Butyl)sulfamoyl)-N-(6-(2-methylmorpholino)pyridin-2-yl)-2-(6-azaspiro[2.5]octan-6-yl)benzamide] | 51 nM |
| CC(C)c1cccc(NC(=O)c2ccc(S(C)(=O)=O)cc2N2CCC3(CC2)CC3)n1 [Example 4-5, N-(6-Isopropylpyridin-2-yl)-4-(methylsulfonyl)-2-(6-azaspiro[2.5]octan-6-yl)benzamide] | 179 nM |
| Cc1cc(NC(=O)c2ccc(S(=N)(=O)C3CC3)cc2N2CCC3(CC2)CC3)nc(N2CC(F)(F)C2)c1 (stereo in doubt) [Example 28-2, 2-(6-Azaspiro[2.5]octan-6-yl)-4-(R-cyclopropylsulfonimidoyl)-N-(6-(3,3-difluoro-1-azetidinyl)-4-methyl-2-pyridinyl)benzamide] | 37 nM |
| C[C@@H]1CN(c2cccc(NC(=O)c3ccc(S(C)(=N)=O)cc3N3CCC4(CC3)CC4)n2)CCO1 (single isomer, unassigned) [Example 13-3] | 418 nM |
| C[C@@H]1CN(c2cccc(NC(=O)c3ccc(NS(=O)(=O)CCO)cc3N3CCC4(CC3)CC4)n2)CCO1 [Example 7-12, (R)-4-((2-Hydroxyethyl)sulfonamido)-N-(6-(2-methylmorpholino)pyridin-2-yl)-2-(6-azaspiro[2.5]octan-6-yl)benzamide] | 30 nM |
| CC1(S(=O)(=O)Nc2ccc(C(=O)Nc3cccc(N4CCCC(C#N)C4)n3)c(N3CCC4(CC3)CC4)c2)CC1 (centres unmarked) [Example 3-22, N-(6-(3-Cyanopiperidin-1-yl)pyridin-2-yl)-4-((1-methylcyclopropane)-1-sulfonamido)-2-(6-azaspiro[2.5]octan-6-yl)benzamide] | 86 nM |
| O=C(Nc1cccc(OCCC(F)(F)F)n1)c1ccc(S(=O)(=O)C2CNC2)cc1N1CCC2(CC1)CC2 [Example 31, 4-(Azetidin-3-ylsulfonyl)-2-(6-azaspiro[2.5]octan-6-yl)-N-(6-(3,3,3-trifluoropropoxy)pyridin-2-yl)benzamide trifluoroacetate] | 55 nM |
| CC1(S(=O)(=O)Nc2ccc(C(=O)Nc3cccc(N4CCC[C@](C)(O)C4)n3)c(N3CCC4(CC3)CC4)c2)CC1 [Example 3-9, (S)-N-(6-(3-Hydroxy-3-methylpiperidin-1-yl)pyridin-2-yl)-4-((1-methylcyclopropane)-1-sulfonamido)-2-(6-azaspiro[2.5]octan-6-yl)benzamide] | 175 nM |
